Laboratory results from patent US5594022A, “Tachykinin antagonists” (Warner-Lambert Company, priority 1994, dated 1997).
Where a name gives a salt, the structure may show the parent alone. Read-outs that look alike come from different tables or passages of the source.

Tests used:
NK1 receptor [1] = target: T1, NK1 receptor (Cavia porcellus, UniProt P30547); assay: In vitro NK1 receptor binding ([125I] Bolton Hunter Substance-P, guinea pig cerebral cortex membranes); conditions: [125I-BH]Substance-P 0.1 nM
T1 construct: guinea pig cerebral cortex membranes; from tissue; host or cells: guinea pig cerebral cortex membranes
T1 sequence (P30547 whole entry): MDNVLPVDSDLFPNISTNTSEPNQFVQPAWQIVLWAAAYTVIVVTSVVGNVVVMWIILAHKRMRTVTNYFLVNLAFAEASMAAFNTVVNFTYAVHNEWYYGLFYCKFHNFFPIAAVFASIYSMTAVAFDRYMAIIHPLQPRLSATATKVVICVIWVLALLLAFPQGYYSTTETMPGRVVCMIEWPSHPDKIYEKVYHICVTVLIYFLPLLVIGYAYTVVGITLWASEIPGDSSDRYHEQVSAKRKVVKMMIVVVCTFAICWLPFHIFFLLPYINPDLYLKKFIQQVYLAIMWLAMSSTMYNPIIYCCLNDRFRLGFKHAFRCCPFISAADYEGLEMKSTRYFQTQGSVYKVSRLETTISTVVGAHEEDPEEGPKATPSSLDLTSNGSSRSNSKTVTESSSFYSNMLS
Description: The compounds of the invention were also evaluated in three tachykinin binding assays.

[2] = target: T2, NK1 receptor (Guinea Pig Ileum) (Cavia porcellus, UniProt P30547); assay: NK1 antagonist activity, guinea pig ileum; conditions: read-out: NK1 Antagonist Activity pkB/pA2, Guinea Pig Ileum (converted)
T2 construct: Ileum; from tissue; host or cells: guinea pig ileum
T2 sequence (P30547 whole entry): as above

NK1 receptor [3] = target: T1, NK1 receptor; assay: Guinea pig plasma extravasation (antagonism of SPOMe-induced plasma protein extravasation in the bladder); format: in vivo; conditions: read-out: ID50, Guinea Pig Plasma Extravasation
[4] = target: T3, NK1 receptor (Guinea Pig Trachea) (Cavia porcellus, UniProt P30547); assay: NK1 antagonist activity, guinea pig trachea; conditions: read-out: NK1 Antagonist Activity pkB/pA2, Guinea Pig Trachea (converted)
T3 construct: Trachea; from tissue; host or cells: guinea pig trachea
T3 sequence (P30547 whole entry): as above

NK1 receptor [5] = conditions: literature; cited from earlier work
[6] = read-out: Binding IC50, In Vitro NK1 Receptor Binding
[7] = Binding IC50, In Vitro NK1 Receptor Binding
[8] = guinea pig bladder, IV, SPOMe-induced

Compound | IC50 (NK1 receptor [1]; [6]) | other results
C[C@H](NC(=O)[C@@](C)(Cc1c[nH]c2ccccc12)NC(=O)OC1Cc2ccccc2C1)c1ccccc1 [Example 46, 2,3-Dihydro-1H-inden-2-yl [1-(1H-indol-3-ylmethyl) -1-methyl-2-oxo-2-[(1-phenylethyl)amino]ethyl]carbamate] | 110 nM | –
Cc1ccc(C(C)NC(=O)[C@@](C)(Cc2c[nH]c3ccccc23)NC(=O)OCc2ccccc2)cc1 (single isomer, unassigned) [Example 36, Phenylmethyl [1-(1H-indol-3-ylmethyl)-1-methyl-2-[[1-(4-methylphenyl)ethyl]amino]-2-oxoethyl]carbamate] | 70 nM | –
C[C@H](NC(=O)[C@H](Cc1c[nH]c2ccccc12)NC(=O)OCc1ccccc1)c1ccccc1 [Example 7] | 306 nM | –
C[C@H](NC(=O)C(C)(Cc1csc2ccccc12)NC(=O)OCc1ccccc1)c1ccccc1 (some centres unmarked) [Example 60, Phenylmethyl [1-(benzo[b]thien-3-ylmethyl)-1-methyl-2-oxo-2-[(1-phenylethyl)amino]ethyl]carbamate] | > 1000 nM | –
C[C@H](NC(=O)[C@@](C)(Cc1c[nH]c2ccccc12)NC(=O)OCc1ccco1)c1ccccc1 (relative stereo) [Example 49, 2-Furanylmethyl [R,(R*,S*)]-[1-(1H-indol-3-ylmethyl) -1-methyl-2-oxo-2-[(1-phenylethyl)amino]ethyl]carbamate] | 120 nM | –
C[C@H](NC(=O)[C@@](C)(Cc1c[nH]c2ccccc12)NC(=O)OCc1ccoc1)c1ccccc1 [Example 48, 3- Furanylmethyl [R-(R*,S*)]-[1-(1H-indol-3-ylmethyl) -1-methyl-2-oxo-2-[(1-phenylethyl)amino]ethyl]carbamate] | 230 nM | –
C[C@H](NC(=O)[C@@](C)(Cc1c[nH]c2ccccc12)NC(=O)OCc1cccc(F)c1F)c1ccccc1 [Example 52, (2,3-Difluorophenyl) methyl [R-(R*,S*)]-[(1H-indol-3-methyl)-1-methyl-2-oxo-[(1-phenylethyl)amino]ethyl]carbamate] | 49 nM | –
Cc1ccc(COC(=O)N[C@](C)(Cc2c[nH]c3ccccc23)C(=O)N[C@@H](C)c2ccccc2)cc1 [Example 22] | – | Kb [2]: 15.8 nM; ED50 (NK1 receptor [3]; guinea pig, iv): 0.64 mg/kg; Kb [4]: 100 nM; IC50 (NK1 receptor [1]; [7]): 17 nM
Substance-P | – | NK1 receptor affinity or activity, in words (NK1 receptor [5]): highest affinity for NK1 receptors
C[C@H](NC(=O)[C@](C)(Cc1c[nH]c2ccccc12)NC(=O)OCc1ccccc1)c1ccccc1 [Example 16] | – | IC50 (NK1 receptor [1]; [7]): 702 nM
CC(NC(=O)C(C)(Cc1c[nH]c2ccccc12)NC(=O)OCc1ccccc1)C1CCCCC1 (stereo not drawn) [Example 38, Phenylmethyl [R-(R*,R*)]-(2-[(1-cyclohexyethyl)amino]-1-(1H-indol-3-ylmethyl)-1-methyl-2-oxoethyl]carbamate] | 100 nM | –
C[C@H](NC(=O)[C@@](C)(Cc1c[nH]c2ccccc12)NC(=O)OCc1ccc(F)cc1)c1ccccc1 [Example 51, (4-Fluorophenyl) methyl [R-(R*,S*)]-[1-(1H-indol-3-ylmethyl)-1-methyl-2-oxo-2-[(1-phenylethyl)amino]ethyl]carbamate] | 230 nM | –
C[C@H](NC(=O)[C@@](C)(Cc1c[nH]c2ccccc12)NC(=O)OCc1ccsc1)c1ccccc1 [Example 42, 3-Thienylmethyl [R-(R*,S*)]-[(1H-indol-3-ylmethyl) -1-methyl-2-oxo-2-[(1-phenylethyl)amino]ethyl]carbamate] | 140 nM | –
O=C(N[C@@H](Cc1c[nH]c2ccccc12)C(=O)OCc1cc(C(F)(F)F)cc(C(F)(F)F)c1)OCc1ccccc1 [Example 35, Methyl N-[(phenylmethoxy)carbonyl]-, [3,5-bis(trifluoromethyl)phenyl]-L-tryptophan] | 233 nM | –
C[C@H](NC(=O)[C@@](C)(Cc1c[nH]c2ccccc12)NC(=O)OCc1cccs1)c1ccccc1 [Example 43, 2-Thienylmethyl [R-(R*,S*)]-[1-(1H-indol-3-ylmethyl) -1-methyl-2-oxo-[(1-phenylethyl)amino]ethyl]carbamate] | 100 nM | –
C[C@H](NC(=O)[C@@](C)(Cc1c[nH]c2ccccc12)NC(=O)OCc1ccncc1)c1ccccc1 [Example 41] | > 10000 nM | –
CC(NC(=O)[C@@](C)(Cc1c[nH]c2ccccc12)NC(=O)OCc1ccccc1)c1cc(C(F)(F)F)cc(C(F)(F)F)c1 (mixture of isomers) [Example 39, Phenylmethyl (R,RS)-[2-[[1-[3,5-bis(trifluoromethyl) -phenyl]ethyl]amino]-1-(1H-indol-3-ylmethyl)-1-methyl-2-oxoethyl]carbamate] | 10000 nM | –
C[C@H](NC(=O)C(Cc1n[nH]c2ccccc12)NC(=O)OCc1ccccc1)c1ccccc1 (stereo partly drawn) [Example 55, Phenylmethyl [R-(R*,S*)]and [S-(R*,R*)]-[1-(1H -indazol-3-ylmethyl-)-2-oxo-2-[(1-phenylethyl)amino]ethyl]carbamate] | > 1000 nM | –
C[C@H](NC(=O)[C@@](C)(Cc1c[nH]c2ccccc12)NC(=O)OC1CCc2ccccc21)c1ccccc1 (stereo partly drawn) [Example 44, 2,3-Dihydro-1H-inden-3-yl [R-(R*,S*)]-[1(1H-indol-3-ylmethyl)-1-methyl-2-oxo-2-[(phenylethyl)amino]ethyl]carbamate] | 110 nM | –

Compound | IC50 (NK1 receptor [1]; [6]) | other results
C[C@H](NC(=O)C(Cc1c[nH]c2ccc(F)cc12)NC(=O)OCc1ccccc1)c1ccccc1 (stereo partly drawn) [Example 56, Phenylmethyl [R-(R*,S*)]and [S-(R*,R*)]-[1-[(5-fluoro-1H-indol-3-yl)methyl]-2-oxo-2-[(1-phenylethyl)amino]ethyl]carbamate] | 3200 nM | –
CN(C(=O)OCc1ccc(Cl)cc1)[C@@H](Cc1c[nH]c2ccccc12)C(=O)NCc1ccccc1 [Example 29] | 487 nM | –
C[C@H](NC(=O)[C@@H](Cc1c[nH]c2ccccc12)NC(=O)OCc1ccccc1)c1ccccc1 [Example 6] | 75 nM | –
C[C@H](NC(=O)[C@@](C)(Cc1c[nH]c2ccccc12)NC(=O)OCc1ccccc1F)c1ccccc1 [Example 47, (2-Fluorophenyl) methyl [R-(R*,S*)]-[1-(1H-insol-3-ylmethyl)-1-methyl-2-oxo-[1-phenylethyl)amino]ethyl]carbamate] | – | Kb [2]: 3.98 nM; ED50 (NK1 receptor [3]; guinea pig, iv): 0.13 mg/kg; Kb [4]: 50.1 nM; IC50 (NK1 receptor [1]; [7]): 10 nM
Cc1ccc(C(C)NC(=O)[C@@](C)(Cc2c[nH]c3ccccc23)NC(=O)OCc2ccccc2)cc1 (single isomer, unassigned) [Example 37, Phenylmethyl [1-(1H-indol-3-ylmethyl)-1-methyl-2-[[1-(4-methylphenyl)ethyl]amino]-2-oxoethyl]carbamate] | 290 nM | –
C[C@@H](NC(=O)[C@H](Cc1c[nH]c2ccccc12)N(C)C(=O)OCc1ccccc1)c1ccccc1 [Example 27] | 306 nM | –
C[C@H](NC(=O)[C@@H](Cc1ccc2ccccc2c1)NC(=O)OCc1ccccc1)c1ccccc1 [Example 58] | 1700 nM | –
C[C@H](NC(=O)[C@@](C)(Cc1c[nH]c2ccccc12)NC(=O)OCc1cc2ccccc2o1)c1ccncc1 [Example 66, Carbamic acid, [1-(1H-indol-3-ylmethyl)-1-methyl-2-oxo-2-[[1-(4-pyridinyl)ethyl]amino]ethyl]-, 2-benzofuranylmethyl ester, monohydrochloride, [R-(R*,S*)]] | – | ED50 (NK1 receptor [3]; [8]): 2.8 mg/kg
COc1ccc(C(C)NC(=O)[C@@](C)(Cc2c[nH]c3ccccc23)NC(=O)OCc2ccccc2)cc1 (stereo partly drawn) [Example 40, Phenylmethyl (R,RS)-[1-(1H, indole-3-ylmethyl)-2-[[1-(4-methoxyphenyl)ethyl]amino]-1-methyl-2-oxoethyl]carbamate] | 210 nM | –
C[C@H](NC(=O)[C@H](Cc1c[nH]c2ccccc12)N(C)C(=O)OCc1ccccc1)c1ccccc1 [Example 24] | 185 nM | –
CC(NC(=O)C(Cc1cn(C)c2ccccc12)NC(=O)OCc1ccccc1)c1ccccc1 (centres unmarked) [Example 57, Phenylmethyl [1-(1-methyl-1H-indol-3-ylmethyl]-2-pxp-2-[(1-phenylethyl)amino]ethyl]carbamate] | 3400 nM | –
CN(Cc1ccccc1)C(=O)[C@H](Cc1c[nH]c2ccccc12)NC(=O)OCc1cc2ccccc2o1 [Example 67, Carbamic acid, [1-(1H-indol-3-ylmethyl)-2-[methyl (phenylmethyl)amino]-2-oxoethyl]-, 2-benzofuranylmethyl ester, (S)--] | – | Kb [2]: 12.6 nM; ED50 (NK1 receptor [3]; [8]): 0.91 mg/kg
C[C@H](NC(=O)[C@@](C)(Cc1c[nH]c2ccccc12)NC(=O)OCc1ccc(F)cc1F)c1ccccc1 [Example 53, (2,4-Difluorophenyl) methyl [R-(R*,S*)]-[1-(1H-indol-3-ylmethyl)-1-methyl-2-oxo-2-[(1-phenylethyl)amino]ethyl]carbamate] | – | Kb [2]: 2.51 nM; ED50 (NK1 receptor [3]; guinea pig, iv): 0.071 mg/kg; Kb [4]: 7.94 nM; IC50 (NK1 receptor [1]; [7]): 39 nM
CN(C(=O)OCc1ccccc1)[C@@H](Cc1c[nH]c2ccccc12)C(=O)NCc1ccccc1 [Example 23] | 168 nM | –
CN(Cc1ccccc1)C(=O)[C@H](Cc1c[nH]c2ccccc12)NC(=O)OCc1ccccc1 [Example 3] | 218 nM | –
CN(Cc1ccccc1)C(=O)C(Cc1c[nH]c2ccccc12)NC(=O)OCc1ccccc1 (centres unmarked) [Example 1] | 341 nM | –
CC(NC(=O)C(Cc1c[nH]c2ccccc12)NC(=O)OCc1ccccc1)c1ccccc1 (centres unmarked) [Example 4] | 198 nM | –
C[C@H](NC(=O)[C@@](C)(Cc1c[nH]c2ccccc12)NC(=O)OCc1cccc(F)c1)c1ccccc1 [Example 50, (3-Fluorophenyl) methyl [R-(R*,S*)]-[1-(1H-indol-3-ylmethyl)-1-methyl-2-oxo-2-[(1-phenylethyl)amino]ethyl]carbamate] | 120 nM | –
